{"source": "patent US11541030B2", "about": "“Methods for the treatment of inflammation associated with infection” (NOXOPHARM LIMITED, priority 2020, dated 2023)", "key": {"TC-1 cells (cGAS-STING)": {"system": "TC-1 cells (cGAS-STING)", "assay": "CPT-induced IL-6 in TC-1 cells", "settings": "TC-1, 0.5 μM CPT 48 hours; H151 1.8 μM, IDX 2.5 μM", "procedure": "FIG. 7: Mouse TC-1 cells were plated in the presence of 0.5 μM CPT for 48 hours, with the following compounds, where indicated: H151 (1.8 μM), IDX (2.5 μM). IL-6 levels were determined by ELISA. Data shown are averaged from 2 (for H151) or 3 independent experiments (conducted with biological replicate), ±standard deviation (SD). […] Each point represents the mean data for each independent experiment; the column represents the mean of the experiments. *, P≤0.05; **, P≤0.01; ***, P≤0.001; ****, P≤0.0001, ns: non-significant.\nCell culture and reagents.\nMurine IP-10 production and IL-6 in supernatant of iBMMs and TC-1 was quantified using Mouse CXCL10/IP-10/CRG-2 Duo Set ELISA (R&D systems, #Dy466) and the IL6 OptE1A ELISA Kit mouse (BD Bioscience, #555240), respectively, according to the manufacturer's protocol. Similarly, human IP-10, TNF-α and IL-6 production was measured in cell supernatants using human IP-10 OptEIA ELISA kit (BD Biosciences, #555157), human OptEIA TNF-α kit (BD Bioscience, #555212) and human IL-6 OptEIA ELISA Set (BD Biosciences, #555220). Tetramethylbenzidine substrate (ThermoFisher Scientific) was used for quantification of the cytokines on a Fluostar OPTIMA (BMG LABTECH) plate-reader."}, "TLR3 (PolyI:C)": {"system": "TLR3 (PolyI:C)", "assay": "PolyI:C-induced IL-6 in hTERT immortalised foreskin fibroblasts", "type": "cell-based, human", "settings": "2.5 uM IDX or H151 pre-treatment, 7 h polyI:C (20 ug/ml)", "experimental": "(§1) IL-6 levels were measured in the supernatants by ELISA.\n(§2) To determine the specificity of IDX on STING signalling, human hTERT immortalised foreskin fibroblasts which have functional TLR4 (LPS) and TLR3 (PolyI:C) responsiveness were tested. […] (FIG. 6)."}, "TLR4 (LPS)": {"system": "TLR4 (LPS)", "assay": "LPS-induced IL-6 in hTERT immortalised foreskin fibroblasts", "type": "cell-based, human", "settings": "2.5 uM IDX or H151 pre-treatment, 7 h LPS (100 ng/ml)", "experimental": "as §1, §2"}, "human hTERT fibroblasts": {"system": "human hTERT fibroblasts", "assay": "Cell proliferation of hTERT fibroblasts", "type": "cell-based", "settings": "10 μM IDX, 72 hours"}, "[1]": {"system": "basal STING signalling in Trex1-mutant mice", "type": "in vivo, mouse", "settings": "2 mg/kg i.p. daily for 10 days"}, "[2]": {"system": "cGAS/STING (mouse STING-mCherry), IFN-β-luciferase reporter", "assay": "IFN-β-luciferase reporter in HEK-Sting cells overexpressing cGAS-GFP", "settings": "different doses overnight", "procedure": "FIG. 1: Human HEK cells constitutively expressing mouse STING-mCherry were co-transfected with cGAS-GFP and an interferon (IFN)beta-luciferase (A) or an NF-κB-Luc reporter (B) reporter for 3 h prior to being treated overnight with indicated concentration of IDX (in equal volume of DMSO). Firefly luciferase was quantified the next day. Data shown are averaged from 2 (B) or 3 (A) independent experiments in biological triplicate, relative to DMSO only condition control (±SEM).\nCell culture and reagents.\nCell transfections: HEK Sting cells were reverse transfected with 200 ng of IFNb-Luciferase reporter and 400 ng of cGAS-GFP overexpression vector, using 1.8 ul lipofectamine 2000 and ˜600,000 cells, per well of a 96 well plate (as previously reported (8)). After 3 h, the cells were collected and aliquoted in 12 wells of a 96 well plate (for each well of a 6 well plate), and treated with indicated doses of IDX overnight, prior lysis in 40 ul of Glo lysis buffer the next day (Promega). Luciferase assays were carried out using the Promega Luciferase Assay System on a on a Fluostar OPTIMA (BMG LABTECH) plate-reader."}, "human STING": {"target": "T1, human STING (Homo sapiens, UniProt Q86WV6, G230A/H232R/R293Q/R71H)", "T1 construct": "endogenous in cells; host or cells: human THP-1 cells", "T1 sequence (Q86WV6 whole entry R71H/G230A/H232R/R293Q)": "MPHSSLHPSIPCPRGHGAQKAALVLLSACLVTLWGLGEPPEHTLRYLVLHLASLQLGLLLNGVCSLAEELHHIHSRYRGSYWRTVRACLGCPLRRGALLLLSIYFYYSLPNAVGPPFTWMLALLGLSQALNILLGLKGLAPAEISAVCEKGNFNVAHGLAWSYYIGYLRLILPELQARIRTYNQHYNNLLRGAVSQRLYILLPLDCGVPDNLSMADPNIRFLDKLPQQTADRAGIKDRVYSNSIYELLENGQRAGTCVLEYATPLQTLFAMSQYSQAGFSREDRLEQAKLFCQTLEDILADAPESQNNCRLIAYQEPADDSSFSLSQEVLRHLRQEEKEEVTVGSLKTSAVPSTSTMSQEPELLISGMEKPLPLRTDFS", "assay": "STING agonist-driven IP-10 and IFNβ in THP-1 cells", "type": "cell-based", "settings": "THP-1, 2.5 uM IDX 1 hour"}, "human STING (PBMCs)": {"system": "human STING (PBMCs)", "assay": "STING agonist-induced IL-6 and TNFα in human PBMCs", "settings": "PBMCs from two donors, 2.5 μM IDX pre-treatment, GSK STING agonist 100 nM 6 hours", "procedure": "The supernatants were collected and analysed for IL-6 and TNFα production by ELISA. Data shown are as average from 2 independent donors (conducted with biological replicate for each donor), ±SEM.\nSimilarly, human IP-10, TNF-α and IL-6 production was measured in cell supernatants using human IP-10 OptEIA ELISA kit (BD Biosciences, #555157), human OptEIA TNF-α kit (BD Bioscience, #555212) and human IL-6 OptEIA ELISA Set (BD Biosciences, #555220). Tetramethylbenzidine substrate (ThermoFisher Scientific) was used for quantification of the cytokines on a Fluostar OPTIMA (BMG LABTECH) plate-reader."}, "mouse STING": {"target": "T2, mouse STING (Mus musculus, UniProt Q3TBT3)", "T2 sequence (Q3TBT3 1-378)": "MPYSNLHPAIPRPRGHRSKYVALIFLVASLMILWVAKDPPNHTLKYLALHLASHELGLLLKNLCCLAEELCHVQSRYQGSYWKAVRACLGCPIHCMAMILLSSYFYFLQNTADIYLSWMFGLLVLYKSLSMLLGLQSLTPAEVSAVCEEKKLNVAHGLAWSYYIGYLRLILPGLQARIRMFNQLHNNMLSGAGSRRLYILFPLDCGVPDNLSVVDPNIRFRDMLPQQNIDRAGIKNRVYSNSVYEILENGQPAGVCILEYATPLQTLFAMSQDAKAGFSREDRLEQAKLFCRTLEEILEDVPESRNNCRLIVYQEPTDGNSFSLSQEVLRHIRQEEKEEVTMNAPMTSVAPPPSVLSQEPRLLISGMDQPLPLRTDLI", "assay": "DMXAA-induced ISRE-luciferase in L929 cells", "settings": "2.5 uM IDX; DMXAA up to 100 ug/ml", "procedure": "FIG. 2: Mouse L929 cells stably expressing an IFN-stimulated responsive element (ISRE)-luciferase reporter were pre-treated for 1 h with indicated doses of IDX, prior an 8 h stimulation with 20 ug/ml DMXAA. Cells were lysed and firefly luciferase was quantified at the end of the experiment. Data shown are averaged from 2 independent experiments in biological triplicate, relative to DMXAA and DMSO only condition control (±SEM).\nLuciferase assays were carried out at 8 hours. Data were normalised to DMSO+DMXAA only condition, and are shown as averages from 3 independent experiments (conducted with biological replicate), ±SD. Each point represents the mean data for each independent experiment; the column represents the mean of the experiments.\nTo determine whether IDX could inhibit STING signalling more directly, mouse L929 cells stably expressing an IFN-stimulated-responsive luciferase (ISRE-Luc) were pretreated with IDX at various doses for 1 h, prior to DMXAA stimulation for 8 h (FIG. 2).\nUsing mouse L929 cells stably expressing an interferon (IFN)-stimulated responsive element (ISRE)-Luciferase construct referred to as LL171 cells (2) and stimulated with the murine STING agonist DMXAA, the inventors speculated that the DMXAA-induced IFN-β production and downstream ISRE-Luciferase expression would only be minimally impacted by IDX if it selectively acted on NF-κB signalling."}, "[3]": {"system": "influenza A virus (IAV) driven lung inflammation", "assay": "Influenza A virus infection in lung TGF-β1 transgenic mice", "type": "in vivo, mouse", "settings": "5 mg/kg daily from day 1 after IAV infection until day 3"}, "basal Sting signalling": {"system": "basal Sting signalling", "assay": "Interferon stimulated genes in primary BMDMs from Trex1-mutant mice (RT-qPCR)", "settings": "overnight 1.25 and 2.5 μM IDX"}, "[4]": {"assay": "Fresh versus frozen DMSO stock comparison", "type": "physicochemical", "settings": "40 mM stock in DMSO kept frozen at −20C"}, "[5]": {"system": "STING signalling (STING, TBK1, IRF3, p-65)", "assay": "Western blotting of DMXAA-stimulated immortalised mouse bone marrow derived macrophages", "type": "cell-based", "settings": "2.5 uM IDX 1 h", "experimental": "FIG. 11: Immortalised mouse bone marrow derived macrophages were pre-treated for 1 hour with 2.5 uM IDX prior to stimulation for an indicated amount of time with DMXAA (50 ug/mL), and then lysed and analysed by Western blotting using specific total or phospho-antibody. The results on STING and p-STING are representative of 3 independent experiments.\nWestern Blotting: Following lysis in RIPA buffer supplemented with complete mini protease inhibitor cocktail (Sigma #4693124001) and phosSTOP inhibitor (Sigma #4906845001), the samples were subjected to SDS-Page analyses, on NuPAGE 4%-12% Bis-Tris Protein Gels (Thermo Scientific) with MES or MOPS running buffer (Thermo Scientific), as previously reported (4). Anti-Sting (#13647), Phospho-Sting (#72971), TBK1 (#3013), phospho-TBK1 (#5483), IKKe (#3416), phospho-IKKe (#8766), IRF-3 (#4302), phosphor-IRF3 (#4947), p-65 (#4764), phospho-p-65 (#3033) antibodies were all from Cell Signalling. Anti-beta-Actin antibodies (#Ab49900) were from Abcam.\nTo further determine the direct activity of IDX on STING, immortalised mouse bone marrow derived macrophages were stimulated with DMXAA for 1, 2 or 3 hours in the presence of IDX (FIG. 11). The cell lysates were analysed by Western blotting using specific total or phospho-antibody against STING, TBK1, IRF3, and p-65 (FIG. 11). In support of its inhibitory activity on downstream STING signaling, IDX decreased phosphorylation of TBK1 and IRF3 and also STING itself. […] While these effects could all be dependent on TBK1 inhibition by IDX, the inventors also observed decreased p-65 phosphorylation that was not dependent on TBK1 in this cell system (4)."}}}
{"smiles": "CCc1ccc(NC(=O)Nc2c[nH]c3ccccc23)cc1", "note": "[H151, reference compound]", "values": [{"measurement": "CPT-induced IL-6 production", "setting": "TC-1 cells (cGAS-STING)", "result": "strongly reduced"}, {"measurement": "IL-6 production, PolyI:C stimulation", "setting": "TLR3 (PolyI:C)", "result": "only modestly reduced"}, {"measurement": "IL-6 production, LPS stimulation", "setting": "TLR4 (LPS)", "result": "only modestly reduced"}]}
{"smiles": "Oc1ccc(C2=Cc3ccc(O)cc3OC2)cc1", "note": "[IDX, 2H-1-Benzopyran-7-0,1,3-(4-hydroxyphenyl)]", "values": [{"measurement": "impact on cell proliferation", "setting": "human hTERT fibroblasts", "result": "little impact"}, {"measurement": "CPT-induced IL-6 production", "setting": "TC-1 cells (cGAS-STING)", "result": "significantly reduced"}, {"measurement": "Ifi44 expression in the spleen", "setting": "[1]", "result": "decreased"}, {"measurement": "Ifih1 expression in the spleen", "setting": "[1]", "result": "decreased"}, {"measurement": "Isg15 expression in the spleen", "setting": "[1]", "result": "significant decreased"}, {"measurement": "Rsad2 expression in the spleen", "setting": "[1]", "result": "decreased"}, {"measurement": "serum TNFα levels", "setting": "[1]; compared to PBS controls", "result": "decrease"}, {"measurement": "inhibition of IFN-β-luciferase", "setting": "[2]", "result": "potent inhibitor"}, {"measurement": "IP-10 production driven by ADU-S100", "setting": "human STING; ADU-S100 30 uM 6 hours", "result": "strongly inhibited"}, {"measurement": "IP-10 production driven by synthetic STING agonist (GSK)", "setting": "human STING; GSK agonist 100 nM 6 hours", "result": "strongly inhibited"}, {"measurement": "reduction of IFNβ production", "setting": "human STING; synthetic STING agonist (GSK) 100 nM 6 hours, IFNβ ELISA", "result": "~50", "unit": "%"}, {"measurement": "IL-6 production", "setting": "human STING (PBMCs)", "result": "reduced"}, {"measurement": "TNFα production", "setting": "human STING (PBMCs)", "result": "reduced"}, {"measurement": "effect of increasing DMXAA on inhibition of ISRE-Luc", "setting": "mouse STING", "result": "did not reverse the inhibition"}, {"measurement": "IL-6 in bronchial alveolar lavages", "setting": "[3]", "result": "significantly reduce"}, {"measurement": "Ifih1 expression", "setting": "basal Sting signalling", "result": "dose-dependent inhibition"}, {"measurement": "Ifit1 expression", "setting": "basal Sting signalling", "result": "dose-dependent inhibition"}, {"measurement": "Rsad2 expression", "setting": "basal Sting signalling", "result": "dose-dependent inhibition"}, {"measurement": "IL-6 production, PolyI:C stimulation", "setting": "TLR3 (PolyI:C)", "result": "only modestly reduced"}, {"measurement": "activity of fresh versus frozen IDX stock", "setting": "[4]", "result": "did not show any difference of activity"}, {"measurement": "IL-6 production, LPS stimulation", "setting": "TLR4 (LPS)", "result": "only modestly reduced"}, {"measurement": "p-65 phosphorylation", "setting": "[5]; DMXAA 50 ug/mL 1, 2 or 3 hours", "result": "decreased"}, {"measurement": "phosphorylation of IRF3", "setting": "[5]; DMXAA 50 ug/mL 1, 2 or 3 hours", "result": "decreased"}, {"measurement": "phosphorylation of STING", "setting": "[5]; DMXAA 50 ug/mL 1, 2 or 3 hours", "result": "decreased"}, {"measurement": "phosphorylation of TBK1", "setting": "[5]; DMXAA 50 ug/mL 1, 2 or 3 hours", "result": "decreased"}, {"measurement": "shift in size of total STING (STING activation)", "setting": "[5]; DMXAA 50 ug/mL, 3-hour period", "result": "attenuated"}]}
{"smiles": "CC(=O)Oc1ccccc1C(=O)O", "note": "[aspirin]", "values": [{"measurement": "CPT-induced IL-6 production", "setting": "TC-1 cells (cGAS-STING)", "result": "strongly reduced"}]}
